Test results: patent publication US20220288020A1, “METHOD OF TREATING NEOPLASTIC DISEASES WITH A CDC42-SPECIFIC INHIBITOR” (Children's Hospital Medical Center, priority 2019, published 2022)

Assays:
[1] = tested on: MC38 mouse colon cancer cells; assay: Prophylactic CASIN treatment, syngeneic MC38 tumor model in C57BL/6 mice; format: in vivo
Procedure: FIG. 4. Prophylactic CASIN causes anti-tumor immunity. C57BL/6 mice were injected (i.p.) with vehicle or 30 mg/kg body weight of CASIN twice a day for one week and then 40 mg/kg body weight of CASIN once a day until the end of the experiment. One day after the first CASIN treatment, the mice were injected (s.c.) with MC38 (8×10^5). Tumor growth was monitored (A). Upon euthanasia, tumors were dissected and the expression of IFN-γ^+, IL-4^+ and/or IL-17^+ within CD4^+Foxp3^+ (B), CD4^+Foxp3^− (C), and CD8^+ (D) cells was analyzed by flow cytometry. n=7. Error bars indicate SD. **p<0.01; *p<0.05. In FIGS. 4(A)-(D), data for vehicle administration is the top line (furthest from the x-axis) in FIG. 4A and left side of each data representation in FIGS. 4(B)-(D); and data for CASIN administration is the bottom line (closest to the x-axis) in FIG. 4(A) and right side of each data representation in FIGS. 4(B)-(D).
(§1) The Cdc42 conditional knockout mice and CASIN were developed in CCHMC by Dr. Yi Zheng lab (Yang L, Wang L, Zheng Y. Gene targeting of Cdc42 and Cdc42GAP affirms the critical involvement of Cdc42 in filopodia induction, directed migration, and proliferation in primary mouse embryonic fibroblasts. Mol Biol Cell. 2006 November; 17(11):4675-85) (Liu W, Du W, Shang X, Wang L, Evelyn C, Florian M C, A Ryan M, Rayes A, Zhao X, Setchell K, Meller J, Guo F, Nassar N, Geiger H, Pang Q, Zheng Y. Rational identification of a Cdc42 inhibitor presents a new regimen for long-term hematopoietic stem cell mobilization. Leukemia. 2019 March; 33(3):749-761). In the examples below, the effects of Cdc42 deletion and CASIN on T-cell immunity against tumor growth of colorectal cancer cells and/or pancreatic cancer cells was evaluated. […]
C57BL/6 mice were injected (i.p.) with vehicle or 30 mg/kg body weight of CASIN twice a day for one week and then 40 mg/kg body weight of CASIN once a day until the end of the experiment. […] Tumor growth was monitored. […]

[2] = tested on: MC38 mouse colon cancer cells; assay: Therapeutic CASIN treatment upon tumor onset, MC38 tumor model in C57BL/6 mice, with or without Anti-CD4/CD8 T-cell depletion; format: in vivo
Procedure: FIG. 5. Therapeutic CASIN treatment causes anti-tumor T-cell immunity. C57BL/6 mice were inoculated (s.c.) with MC38 (8×10^5) at day 1 and injected (i.p.) with Anti-CD4/CD8 neutralizing antibodies (5 mg/kg body weight for each antibody) or isotype control antibody once every 4 days starting at day 1. Starting from day 10 when tumor onset was observed, the mice were treated with vehicle or CASIN as described for FIG. 4 above. Tumor volume was monitored (A). At day 14, depletion of T-cells in peripheral blood from the mice treated with Anti-CD4/CD8 neutralizing antibodies was confirmed by flow cytometry (data not shown). Upon euthanasia, tumors were dissected from isotype control antibody-treated mice. The expression of IFN-γ^+ and IL-17^+ in CD4^+Foxp3^+ cells was analyzed by flow cytometry (B). CD3^+ T-cells were visualized by immunohistochemistry using anti-CD3 antibody (C). The expression of IFN-γ^+ and/or IL-17^+ in CD4^+Foxp3^− (D) and CD8^+ cells (E) was analyzed by flow cytometry. n=5. Error bars indicate SD. **p<0.01; *p<0.05. […]
as §1, with “Leukemia. 2019 March; 33(3):749-761).” left out
C57BL/6 mice were injected (s.c.) with MC38 (8×10^5) at day 1 and injected (i.p.) with Anti-CD4/CD8 neutralizing antibodies (5 mg/kg body weight for each antibody) or isotype control antibody once every 4 days starting at day 1. […] Tumor volume was monitored. […]

[3] = tested on: MC38 mouse colon cancer cells; assay: MC38 tumor growth in Cdc42+/- mice treated with AZA; format: in vivo; details: AZA 40 mg/kg i.p. once a day, started three days before MC38 (8×10^5) s.c.; vs Cdc42+/- + vehicle; FIG. 3F
Procedure: (§2) FIG. 3. […] (A, B) Treg-specific heterozygous deletion of Cdc42 upregulates CAI and alkalizes extracellular pH of Tregs. Splenic CD4^+ YFP^+ Tregs were flow-sorted from WT and Cdc42^+/− mice. CAI expression was detected by Q-PCR (A). Another aliquot of the cells were cultured with Anti-CD3/CD28 and IL-2 for 36 hrs. pH of the culture medium (pHe) was measured by a pH meter. (C, D) Extracellular alkalization destabilizes Tregs. Splenic CD4^+ YFP^+ Tregs from WT mice were cultured as described in B, with regular medium of pH 7.4 or medium of pH 7.56 (C). Alternatively, the cells were cultured with conditional medium (CM) from WT Treg culture or from Cdc42^+/− Treg culture (D). Percentages of IFN-γ^+ cells within Tregs (left) and non-Tregs (right) were analyzed by flow cytometry. (E) Inhibition of CAI by acetazolamide (AZA) rescues instability of Cdc42^+/− Tregs. […] Percentages of IFN-γ^+ cells within Tregs (left) and non-Tregs (right) were analyzed by flow cytometry. […] Three days after starting AZA injection, the mice were inoculated (s.c.) with MC38 (8×10^5) and tumor volume was recorded. n=4-7. […]
(§3) Cdc42^fl/+Foxp3^YFP-Cre and Cdc42^+/+Foxp3^YFP-Cre mice were inoculated (s.c.) with MC38 mouse colon cancer cells (8×10^5) or KPC mouse pancreatic cancer cells (8×10^5). Tumor volume was monitored. […] Quantitative real-time RT-PCR (Q-PCR) confirmed the upregulation of CAI in Cdc42^+/− Tregs (FIG. 3A). […]

[4] = tested on: Splenic CD4+ YFP+ Tregs from Cdc42+/- mice; assay: Stability of Cdc42+/- Tregs cultured with or without acetazolamide (flow cytometry, IFN-γ+ cells); format: cell-based, mouse; details: Splenic CD4+ YFP+ Tregs from Cdc42+/- mice cultured with AZA; FIG. 3E
Procedure: as §2, §3

Row | SMILES | tumor growth ([1]; CASIN i.p. 30 mg/kg twice a day for one week then 40 mg/kg once a day, started one day before MC38 s.c., vs vehicle, FIG. 4A) | Treg stability (IFN-γ+, IL-4+, IL-17+ within tumor CD4+Foxp3+ cells) ([1]; prophylactic CASIN, dissected tumors, flow cytometry, FIG. 4B) | effector T cells (tumor CD4+Foxp3- and CD8+ cells) ([1]; prophylactic CASIN, dissected tumors, flow cytometry, FIG. 4C, D) | tumor growth (tumor volume) ([2]; CASIN i.p. 30 mg/kg twice a day for one week then 40 mg/kg once a day from day 10 (tumor onset), isotype control antibody, FIG. 5A) | Treg stability (IFN-γ+ and IL-17+ in tumor CD4+Foxp3+ cells) ([2]; therapeutic CASIN, dissected tumors, flow cytometry, FIG. 5B) | effector T-cells (CD3+ T-cells, IFN-γ-producing CD4+Foxp3- and CD8+ cells) in tumors ([2]; therapeutic CASIN, immunohistochemistry and flow cytometry, FIG. 5C-E) | tumor growth (tumor volume) in Cdc42+/- mice [3] | instability of Cdc42+/- Tregs (percentages of IFN-γ+ cells within Tregs) [4]
1 | OCCNC1CCCc2c1[nH]c1ccc(-c3ccccc3)cc21 (centres unmarked) [CASIN] | suppressing tumor growth | destabilizing Tregs | increasing effector T cells | inhibited tumor growth | Treg instability | increased effector T-cells | – | –
2 | CC(=O)Nc1nnc(S(N)(=O)=O)s1 [acetazolamide] | – | – | – | – | – | – | restores tumor growth | rescued the instability
